Source: patent US20100056526A1, “HETEROMONOCYCLIC COMPOUND AND USE THEREOF” (Takeda Pharmaceutical Company Limited, priority 2006, published 2010)

Legend:
PPARγ = target: T1, PPARγ (Homo sapiens, UniProt P37231); assay: Evaluation of PPARγ activating action (luciferase reporter in PPARγ:RXRα:4ERPP/CHO-K1 cells); assay type: cell-based; settings: CHO-K1, 24 h; test compound 10^−6 M; luciferase activity relative to control compound X (1 μM) = 100%, non-administration group = 0%; read-out: PPARγ activating action (activation % (10^−6 M))
T1 construct: expressed in transfected cells; host or cells: CHO-K1
T1 sequence (P37231 1-477 isoform P37231-2): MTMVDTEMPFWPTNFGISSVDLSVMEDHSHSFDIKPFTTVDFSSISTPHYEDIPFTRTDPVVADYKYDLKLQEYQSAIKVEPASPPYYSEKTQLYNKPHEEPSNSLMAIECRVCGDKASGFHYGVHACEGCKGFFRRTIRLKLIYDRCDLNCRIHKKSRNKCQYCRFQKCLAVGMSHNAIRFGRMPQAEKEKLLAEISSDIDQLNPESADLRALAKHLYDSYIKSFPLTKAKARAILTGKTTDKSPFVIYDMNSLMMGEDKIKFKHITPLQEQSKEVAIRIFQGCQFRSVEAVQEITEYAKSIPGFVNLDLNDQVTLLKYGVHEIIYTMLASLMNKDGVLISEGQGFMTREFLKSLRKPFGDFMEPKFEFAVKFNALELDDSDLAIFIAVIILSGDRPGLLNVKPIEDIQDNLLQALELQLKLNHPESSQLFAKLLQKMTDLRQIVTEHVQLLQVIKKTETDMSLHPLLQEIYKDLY
T1 sequence (P19793 1-462 partner): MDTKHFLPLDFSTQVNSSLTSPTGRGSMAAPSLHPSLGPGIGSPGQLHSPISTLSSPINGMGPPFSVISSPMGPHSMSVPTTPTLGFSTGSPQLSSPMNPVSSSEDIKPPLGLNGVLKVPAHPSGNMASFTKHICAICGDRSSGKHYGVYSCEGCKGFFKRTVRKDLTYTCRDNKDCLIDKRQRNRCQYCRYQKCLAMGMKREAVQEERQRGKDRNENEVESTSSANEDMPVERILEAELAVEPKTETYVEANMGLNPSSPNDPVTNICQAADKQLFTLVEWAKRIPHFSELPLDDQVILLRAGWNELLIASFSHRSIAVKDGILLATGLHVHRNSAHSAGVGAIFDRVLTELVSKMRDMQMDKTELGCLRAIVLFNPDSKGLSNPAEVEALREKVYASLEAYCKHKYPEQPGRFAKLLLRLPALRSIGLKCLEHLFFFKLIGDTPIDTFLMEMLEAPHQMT
Procedure: PPARγ:RXRα:4ERPP/CHO-K1 cells obtained in the following Reference Example 5 were cultured in F12 medium [manufactured by INVITROGEN, USA] containing 10% fetal bovine serum [manufactured by MOREGATE, Australia], seeded in a 96-well half area white plate [manufactured by Corning Coster Corporation, USA] at the density of 5×10^3 cells/well and cultured in a CO2 gas incubator at 37° C. overnight.
Then the medium was removed from the 96-well half area white plate, 45 μl of Ham's F12 medium containing 0.1% fatty acid-free bovine serum albumin (BSA) and 5 μl of test compound were added, and the cells were cultured in a CO2 gas incubator at 37° C. for 1 day. The medium was removed and 20 μl of PicaGene 7.5 [manufactured by TOYO INK MFG. CO., LTD.,.Japan] diluted 2-fold with HBSS (HANKS' BALANCED SALT SOLUTION) [manufactured by BIO WHITTAKER, USA] was added. After stirring, the luciferase activity was determined using 1420 ARVO Multilabel Counter [manufactured by PerkinElmer, USA].
The percent (%) was calculated from the luciferase activity of each test compound when the luciferase activity of the control compound (compound X: 5-[3-(4-{[2-(2-furyl)-5-methyl-1,3-oxazol-4-yl]methoxy}-3-methoxyphenyl)propyl]-1,3-oxazolidine-2,4-dione) (1 μM) was 100% and that of the test compound non-administration group was 0%.
A CHO-K1 cell cultured in a 150 cm^2 cell culture flask [manufactured by Corning Costar Corporation, USA] containing Ham's F12 medium [manufactured by INVITROGEN, USA] supplemented with 10% fetal bovine serum [manufactured by INVITROGEN, USA] was scraped by treating with 0.5 g/L trypsin-0.2 g/L EDTA (ethylenediaminetetraacetic acid) [manufactured by Life Technologies, Inc., USA], and then the cell was washed with PBS (Phosphate-buffered saline) [manufactured by INVITROGEN, USA], centrifuged (1000 rpm, 5 minutes) and suspended in PBS. Subsequently, DNA was introduced into the cell under the conditions shown below using GENE PULSER [manufactured by Bio-Rad Laboratories, USA].
Namely, to a cuvette having a 0.4 cm gap were added 8×10^6 cells and 10 μg of plasmid pVgRXR2-hPPARγ obtained in Reference Example 4 and 10 μg of reporter plasmid pGL3-4ERPP-TK neo obtained in Reference Example 3, which was subjected to electroporation at the voltage of 0.25 kV under the capacitance of 960 μF. Subsequently, the cell was transferred into a F12 medium containing 10% fetal bovine serum and cultured for 24 hours, and then the cell was scraped again and centrifuged, and then suspended in Ham's F12 medium containing 10% fetal bovine serum supplemented with 500 μg/ml of Geneticin [manufactured by INVITROGEN, USA] and 250 μg/ml of Zeocin [manufactured by INVITROGEN, USA]. The obtained suspension was diluted to the density of 10^4 cells/ml and inoculated in a 96-well plate [manufactured by Corning Costar Corporation, USA], which was cultured in a CO2 gas incubator at 37° C., whereby obtaining a Geneticin- and Zeocin-resistant transformant.
Subsequently, after the transformant cell line thus obtained was cultured in a 24-well plate [manufactured by Corning Costar Corporation, USA], a cell line in which the luciferase was expressed and induced, i.e., PPARγ:RXRα:4ERPP/CHO-K1 cell was selected by the addition of 10 μM pioglitazone hydrochloride.

human AT1 receptor = target: T2, human AT1 receptor (Homo sapiens, UniProt P30556); assay: Binding assay using human AT1 receptor-expressing CHO-K1 cell membrane fraction ([125I]-angiotensin II); settings: 22.5 pM [125I]-angiotensin II, 9 μg AT1 membrane, 1 hr room temperature; read-out: AT1 receptor binding inhibitory action (IC50 (nM))
T2 construct: expressed in transfected cells; host or cells: CHO-K1
T2 sequence (P30556 1-359): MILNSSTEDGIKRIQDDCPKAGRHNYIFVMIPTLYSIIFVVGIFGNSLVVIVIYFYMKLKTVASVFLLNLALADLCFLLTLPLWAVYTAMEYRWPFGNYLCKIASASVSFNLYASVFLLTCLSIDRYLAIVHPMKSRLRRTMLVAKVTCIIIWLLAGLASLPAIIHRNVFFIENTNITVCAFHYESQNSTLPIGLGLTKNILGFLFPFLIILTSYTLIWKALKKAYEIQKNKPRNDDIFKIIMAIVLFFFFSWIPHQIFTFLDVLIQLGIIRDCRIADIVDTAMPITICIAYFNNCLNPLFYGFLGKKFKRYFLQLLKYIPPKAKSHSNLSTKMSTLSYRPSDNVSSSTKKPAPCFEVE
Procedure: The membrane fraction for human AT1 receptor binding assay was prepared as follows. CHO-K1 cell capable of stable expression of human AT1 receptor was cultured, recovered, suspended in homogenize buffer (10 mM NaHCO3 (pH 7.4), 5 mM EDTA, 1×Complete EDTA free) [manufactured by Roche, Switzerland], and homogenized. The homogenate was centrifuged at low-speed (900×g, 10 min, 4° C.), and the supernatant was recovered and ultracentrifuged (90,000×g, 1 hr, 4° C.). The supernatant was discarded, and the pellets were resuspended in resuspension buffer (50 mM Tris (pH 7.4), 1 mM EDTA, 1×Complete EDTA free).
The binding assay was performed in the presence of 22.5 pM [^125I]-angiotensin II [manufactured by PerkinElmer, USA], 9 μg of AT1 membrane and test compound in 100 μL (total reaction volume) of reaction buffer (50 mM Tris (pH 7.4), 10 mM MgCl2 supplemented or not supplemented with 0.3 mg/mL fatty acid-free bovine serum albumin [manufactured by Wako Pure Chemical Industries, Ltd., Japan]). The reaction mixture was incubated in 96 well polypropylene plate for 1 hr at room temperature, and the reaction was quenched by rapid filtration (96 well cell harvester) through a GF/C filter treated with wash buffer (50 mM Tris (pH 7.4)). Subsequently, the filter was washed 5 times with 0.3 mL of ice-cooled wash buffer. The filter was air-dried, and [^125I]-angiotensin II binding radioactivity was assayed with Top Count scintillation counter. Total binding was measured in the presence of 1% DMSO and nonspecific binding was measured in the presence of 1 μM CV-11974. The binding data was analyzed by GraphPad Prism program and the IC50 value (compound concentration showing 50% of the maximum value of inhibition percent) of the test compound was calculated.

activation at 1 µM (PPARγ) [%]	IC50 (human AT1 receptor) [nM]	Structure (SMILES)
52.1	1.7	CCCCc1nc(C2CC2)n(-c2ccc3c(c2)CCO3)c(=O)c1Cc1ccc(-c2ccccc2-c2noc(=O)[nH]2)cc1 [Example 112, 6-butyl-2-cyclopropyl-3-(2,3-dihydro-1-benzofuran-5-yl)-5-{[2′-(5-oxo-4,5-dihydro-1,2,4-oxadiazol-3-yl)biphenyl-4-yl]methyl}pyrimidin-4(3H)-one]
50.2	1.8	CCCCc1nc(C(C)C)n(-c2ccc3c(c2)CCO3)c(=O)c1Cc1ccc(-c2ccccc2-c2noc(=O)[nH]2)cc1 [Example 118, 6-butyl-3-(2,3-dihydro-1-benzofuran-5-yl)-2-isopropyl-5-{[2′-(5-oxo-4,5-dihydro-1,2,4-oxadiazol-3-yl)biphenyl-4-yl]methyl}pyrimidin-4(3H)-one]
24.3	1.9	CCCCc1nc(C)n(-c2ccc3c(c2)CC(C)(C)O3)c(=O)c1Cc1ccc(-c2ccccc2-c2nsc(=O)[nH]2)cc1 [Example 128, 6-butyl-3-(2,2-dimethyl-2,3-dihydro-1-benzofuran-5-yl)-2-methyl-5-{[2′-(5-oxo-4,5-dihydro-1,2,4-thiadiazol-3-yl)biphenyl-4-yl]methyl}pyrimidin-4(3H)-one]
34.2	2.2	CCCc1nc(C)n(-c2ccc3c(c2)CCC(C)(C)O3)c(=O)c1Cc1ccc(-c2ccccc2-c2noc(=O)[nH]2)cc1 [Example 131, 3-(2,2-dimethyl-3,4-dihydro-2H-chromen-6-yl)-2-methyl-5-{[2′-(5-oxo-4,5-dihydro-1,2,4-oxadiazol-3-yl)biphenyl-4-yl]methyl}-6-propylpyrimidin-4(3H)-one]
32.9	2.9	CCCCc1nn(-c2ccc3c(c2)CC(C)(C)O3)c(=O)n1Cc1ccc(-c2ccccc2-c2noc(=O)[nH]2)cc1 [Example 136, 3-(4′-{[3-butyl-1-(2,2-dimethyl-2,3-dihydro-1-benzofuran-5-yl)-5-oxo-1,5-dihydro-4H-1,2,4-triazol-4-yl]methyl}biphenyl-2-yl)-1,2,4-oxadiazol-5(4H)-one]
38.3	1.8	CCCc1nc(C)n(-c2ccc(OC(C)C)cc2)c(=O)c1Cc1ccc(-c2ccccc2-c2noc(=O)[nH]2)cc1F [Example 141, 5-{[3-fluoro-2′-(5-oxo-4,5-dihydro-1,2,4-oxadiazol-3-yl)biphenyl-4-yl]methyl}-3-(4-isopropoxyphenyl)-2-methyl-6-propylpyrimidin-4(3H)-one]
32.8	1.7	CCCc1nc(C)n(-c2ccc3c(c2)C=CC(C)(C)O3)c(=O)c1Cc1ccc(-c2ccccc2-c2noc(=O)[nH]2)cc1 [Example 142, 3-(2,2-dimethyl-2H-chromen-6-yl)-2-methyl-5-{[2′-(5-oxo-4,5-dihydro-1,2,4-oxadiazol-3-yl)biphenyl-4-yl]methyl}-6-propylpyrimidin-4(3H)-one]
22.7	1.5	CCCc1nc(C)n(-c2ccc3c(c2)C(O)CC(C)(C)O3)c(=O)c1Cc1ccc(-c2ccccc2-c2noc(=O)[nH]2)cc1 (centres unmarked) [Example 144, 3-(4-hydroxy-2,2-dimethyl-3,4-dihydro-2H-chromen-6-yl)-2-methyl-5-{[2′-(5-oxo-4,5-dihydro-1,2,4-oxadiazol-3-yl)biphenyl-4-yl]methyl}-6-propylpyrimidin-4(3H)-one]
36.5	1.8	CCCc1nc(C)n(-c2ccc3c(c2)C(=O)CC(C)(C)O3)c(=O)c1Cc1ccc(-c2ccccc2-c2noc(=O)[nH]2)cc1 [Example 145, 3-(2,2-dimethyl-4-oxo-3,4-dihydro-2H-chromen-6-yl)-2-methyl-5-{[2′-(5-oxo-4,5-dihydro-1,2,4-oxadiazol-3-yl)biphenyl-4-yl]methyl}-6-propylpyrimidin-4(3H)-one]
64.8	2.1	CCCCc1nc(C)n(Cc2noc(-c3ccccc3)n2)c(=O)c1Cc1ccc(-c2ccccc2-c2noc(=O)[nH]2)cc1 [Example 152, 6-butyl-2-methyl-5-{[2′-(5-oxo-4,5-dihydro-1,2,4-oxadiazol-3-yl)biphenyl-4-yl]methyl}-3-[(5-phenyl-1,2,4-oxadiazol-3-yl)methyl]pyrimidin-4(3H)-one]
